Patent US10233205B2, “Magnetic resonance imaging contrast agent capable of detecting hydrogen peroxide and reducing reactive oxygen species” (Auburn University, priority 2015, dated 2019)
One block for each molecule: values may come before it.

Experiments:
[1] = T1-weighted relaxivity (r1) on 3 T clinical MRI scanner; assay type: physicochemical; conditions: no oxidant; 50 mM HEPES pH 7.00, 3 T, 25° C.
Excerpt: All MRI data were collected at the Auburn University MRI Research Center (Auburn, Ala.) on a Siemens Verio open-bore 3-T MRI clinical scanner. A 15-channel knee coil was used to simultaneously image 12-26 samples. An inversion recovery (IR) sequence was used that featured a non-selective adiabatic inversion pulse followed by a slice-selective gradient recalled echo (GRE) readout after a delay period corresponding to the inversion time (TI).^1-2 The GRE was a saturation readout, such that only one line of k-space was acquired per repetition time (TR). This method was selected to maximize both the signal strength and the accuracy of the T1 estimates. Specific imaging parameters were as follows: TR was set to 4 s, TI was varied from 4.8 to 2500 ms over 37 steps, the echo time (TE) was set to 3.6 ms, the flip angle equaled 90°, averages=1, slice thickness=5 mm, field of view=140×140 mm, matrix=128×128, resulting in a pixel size of 1.1×1.1×5.0 mm. All samples were run in 50 mM solutions of HEPES in water, buffered to pH 7.0 and kept at […]. The manganese content was systematically varied from 0.10 to 1.00 mM. The inverses of the T1 values were plotted versus the concentration of Mn(II) to obtain r1 values. All reported r1 values are averages from the results of two separate series of experiments. Each series of experiments used a different batch of 1.
Image analysis was performed using custom Matlab programs (Mathworks, Natick, Mass.). The initial TI=4.8 ms image served as a baseline to determine circular region of interest (ROI) boundaries for each sample; from these, the mean pixel magnitudes for each ROI were calculated. For each of the 36 subsequent TI images, the same ROI boundaries were applied and the mean pixel magnitude calculations were repeated. This gave consistent ROI spatial definitions and a corresponding time course of magnitudes for each of the samples over all the TI time points. Each sample's complex phase was used to correct the magnitude polarity to produce a complete exponential T1 inversion recovery curve. The Nelder-Mead simplex algorithm^3 was applied to each sample's exponential curve to estimate its corresponding T1 value.
(§1) For the relaxivity measurements, all samples were run in 298 K aqueous solutions containing 50 mM HEPES buffered to pH 7.00, using a 3 T field provided by a clinical MRI scanner. The data were fit to the indicated linear equations; the y-intercepts were within error of 1/T1 measurements associated with two control samples that contained no Mn(II): (A) 10 mM H2O2 in 50 mM HEPES buffer and (B) pure 50 mM HEPES buffer (both 0.46 s^−1).
as §1, with “All” for “For the relaxivity measurements, all”, “s^−1). The oxidation of 1 by 2,3-dichloro-5,6-dicyano-1,4-benzoquinone (DDQ) occurred in CH2Cl2. After the reaction occurred, the 2,3-dichloro-5,6-dicyanoquinol product was removed via filtration, the CH2Cl2 was removed, and the sample was dissolve in HEPES buffer for MRI analysis. The other oxidation reactions occurred entirely in HEPES buffer.” for “s^−1).”
The capability of 3 to serve as a MRI contrast agent was assessed with a 3 T clinical MRI scanner. All samples were run in 298 K aqueous solutions containing 50 mM HEPES buffered to pH 7.00, using a 3 T field provided by a clinical MRI scanner. All samples were prepared under air. The oxidized samples were prepared by directly adding H2O2 to solutions of 3 in aqueous solutions buffered to pH 7.0. The oxidation reactions were allowed to proceed for 30 min at 298 K before the T1 measurements were taken. […]

[2] = conditions identical to those used for 3; cited from earlier work
[3] = Competitive binding assay with TPEN for log(K) of ligand binding to Mn(II); assay type: physicochemical
Procedure: The log(K) was measured via a competitive binding assay between N,N,N′,N′-tetrakis(2-pyridylmethyl)ethylenediamine (TPEN) and the ligand (L). Various amounts of TPEN were added to a solutions of the ligand in MeCN-d3 and D2O.
The log(K) for the complexation of H2qtp1 to Mn(II) was estimated through a titration with the metal-scavenging agent TPEN (N,N,N′,N′-tetrakis(2-pyridinylmethyl)ethylenediamine, log K=10.3). The ratios of free TPEN to free ligand were assessed by ^1H NMR.
Given the known log(K) of 10.3 for TPEN's binding to Mn(II), a log(K) of 10.7 was thereby assigned for the coordination of H2qtp1 to Mn(II). […] The log(K) of 10.7 is nearly identical to the 10.6 value estimated for a related ligand from our laboratory that contains a para-methylphenol group in place of the H2qtp1's quinol.

[4] = Stability in aerobic solution / to pH; assay type: physicochemical; conditions: pH >10
Procedure: Over this time, collected UV/vis spectra (FIGS. 2 & 3) display changes in the region between 200 nm and 300 nm which are consistent with the oxidation of the quinol to a para-quinone. Past 24 h, the solution begins to turn brown, consistent with oxidation of the manganese to Mn(III) and/or Mn(IV). For the spectrophotometric analysis, the Fe(ClO4)2 solution was added to a MeCN solution containing 0.10 mM [Mn(Hptp1)(MeCN)]^2+; the mixture was scanned at 0 min (dashed red), 30 min (dashed pink), and 60 min (dashed blue). […] At 15 h, approximately 11% of the Mn(II) has been displaced by Fe(II) as indicated by data in FIG. 3.
The stability of 3 to air and adventitious metal ions was assessed primarily by UV/vis spectroscopy. […] Complex 3, however, is susceptible to metal exchange. When equimolar amounts of 3 and Fe(ClO4)2 are mixed in MeCN, 80% of the Mn(II) is replaced by Fe(II) by 3 h.

[5] = Potentiometric pH titrations, Hyperquad model; conditions: for log(β): Hyperquad model, 100 mM KCl, 25° C.
Excerpt: (§2) The speciation in water was more rigorously probed with potentiometric pH titrations. […] The quinolic protons likely deprotonate at higher pH values (pKa˜10), but we were unable to obtain the high pH data necessary to confirm this.
(§3) The data were fit to a model containing the protonated forms of the free ligand and four Mn(II) complexes with the ligand in various protonation states: [Mn(H2qtp2)], [Mn(H3qtp2)]^+, [Mn(H4qtp2)]^2+, and [Mn(H4qtp2)]^3+ (Scheme 4).

Solubility in water = assay type: physicochemical; conditions: pure H2O

Excerpt for physchem: as §2, §3

- stability of ligand to pH [4]: degrades under basic conditions
- pKa (physchem; pKL1 (free ligand pKa)): 4.47
- pKa (physchem; pKL2 (free ligand pKa)): 7.18
- log(β) [5]: 0.00
Molecule: Oc1ccc(O)c(CN(CCN(Cc2ccccn2)Cc2cc(O)ccc2O)Cc2ccccn2)c1 [Complex H4qtp2, N,N′-Bis(2,5-dihydroxybenzyl)-N,N′-bis(2-pyridinylmethyl)-1,2-ethanediamine]

- log(β) [5]: 7.18 (±0.03)
Molecule: Oc1ccc(O)c(CN(CCN(Cc2ccccn2)Cc2cc(O)ccc2O)Cc2ccccn2)c1 [H5qtp2^+]

- log(β) [5]: 11.65 (±0.05)
Molecule: Oc1ccc(O)c(CN(CCN(Cc2ccccn2)Cc2cc(O)ccc2O)Cc2ccccn2)c1 [H6qtp2^2+]

- log(β) [5]: −7.19 (±0.01)
- percent formation of Mn(II) species ([5]; pH 7.0): 40.3%
- percent formation of Mn(II) species ([5]; pH 7.4): 66.2%
Molecule: Oc1ccc2c(c1)CN(Cc1ccccn1)CCN(Cc1ccccn1)Cc1cc(O)ccc1[O][Mn][O]2 [[Mn(H2qtp2)]]

Continued, molecule first:

Molecule: O.O=C([O-])CN(CCN(CC(=O)[O-])CC(=O)[O-])CC(=O)[O-].[Mn+2] [[Mn(EDTA)(H2O)]^2−, reference compound]
- r1 (T1-weighted relaxivity) [1]: 1.73 mM⁻¹ s⁻¹

Molecule: O.O.O.O.O.O.[Mn+2] [[Mn(H2O)6]^2+]
- r1, previously found [2]: about 5.3 mM^−1s^−1

Molecule: Oc1ccc(O)c(CN(CCN(Cc2ccccn2)Cc2ccccn2)Cc2ccccn2)c1 [Complex H2qtp1, N-(2,5-Dihydroxybenzyl)-N,N′,N′-tris(2-pyridinylmethyl)-1,2-ethanediamine]
- equilibrium constant for [Mn(L)(MeCN)]^2+ + TPEN → [Mn(TPEN)]^2+ + L ([3]; in both water and MeCN): 0.4
- log(K) for the coordination of ligand to Mn(II) ([3]; titration with TPEN, 1H NMR, water and MeCN): 10.7

Molecule: cis-Dibromo(N,N′-bis(2,5-benzoquinone)-N,N′-bis(2-pyridinylmethyl)-1,2-ethanediamine)manganese(II) [Complex 4]
- solubility in water (Solubility in water): poor and poor solubility
